# Experimental data reported in patent US20220000811A1, “COMPOSITION FOR PROMOTING HAIR GROWTH COMPRISING A GUANINE DERIVATIVE” (KOREA RESEARCH INSTITUTE OF BIOSCIENCE AND BIOTECHNOLOGY, priority 2019, published 2022).
# Tests used:
# [1] = tested on: HK2, LDHA, NDUS3, ATP5B, Wnt1a, Lef-1, Gli-1, versican; assay: Expression of genes related to metabolism and hair regeneration in skin tissue; format: in vivo, mouse
# Description: (§1) During the hair telogen phase, the hair on the dorsal skin of 7-week-old C57BL/6 mice (Dae Han BioLink, Chungbuk, Republic of Korea) was depilated using an animal clipper and wax (Veet, Oxy Reckitt Benckiser, Seoul, Republic of Korea). From the next day, 200 μL of placebo (control), 1% IM, 1% minoxidil, or 1% metformin was applied daily to the depilated area using a sterile cotton swab. Images of each animal were captured daily, and the degree of darkness of the color on dorsal skin was quantified in the same area (1.6 cm×3 cm) using the Image J program. The mice were sacrificed, and skin tissues on days 0, 7, 14, and 20 were obtained. Half of the tissues were used for RNA isolation, and the other half were fixed with 4% paraformaldehyde overnight for histochemical analysis. The level of expression of genes related to metabolism and hair regeneration was analyzed through the skin tissue of each mouse group.
# [2] = tested on: K15, β-catenin, Ki67, Shh, PDK, PDH; assay: Histochemical (immunostaining) analysis of skin markers; format: in vivo, mouse
# Description: as §1, with “tissues fixed in Example 1.1. were immersed in 30% sucrose, and then embedded in an OCT compound (Sakura Finetek USA Inc, Torrance, Calif., USA). Frozen fragments were obtained using a cryostat sectioning device (Leica, Wetzlar, Germany) and stained using hematoxylin (Sigma) and eosin (Sigma) (H&E), or each” for “level”, “the antibodies shown in Table 1 below. Immunohistochemical analysis was performed,” for “expression of genes related to metabolism”, “fluorescence images were taken with an Olympus microscope (Olympus)” for “hair regeneration was analyzed through the skin tissue of each mouse group.”
# [3] = tested on: mouse embryonic fibroblasts (MEFs); assay: Reprogramming into iPSCs (OSKM) in mouse embryonic fibroblasts, AP staining; format: cell-based; settings: MEFs; for enhancing reprogramming efficiency: 14 days
# Description: During reprogramming into iPSCs by introducing OSKM reprogramming factor into mouse embryonic fibroblasts (MEFs), rotenone, the guanidine derivatives of the present invention, and phenformin were treated at the indicated concentrations. After 14 days, alkaline phosphatase (AP) staining was performed (FIG. 2A), and the number of AP^+ colonies was quantified (FIG. 2b). […] In the subsequent experiment, additional efficacy was evaluated using only the three compounds showing the effective reprogramming-enhancing effect.
smiles,measurement,setting,value
"Cc1ccccc1CCNC(=N)NC(=N)N [IM176OUT05, N-1-(2-methyl)phenethylbiguanide]","expression of stemness-related genes (Wnt1a, Lef-1, Gli-1, and versican)","[1]; day 7, skin",significantly upregulated
same,expression of glycolysis-related enzymes (HK2 and LDHA),"[1]; day 7, skin tissue",significantly induced
same,stemness-related genes compared to control,"[1]; day 20, skin",significantly induced
same,expression of OXPHOS-related enzymes (NDUS3 and ATP5B) compared to control,"[1]; day 20, skin tissue",increased
same,expression of glycolysis-related enzymes (HK2 and LDHA) compared to control,"[1]; day 20, skin tissue",significantly increased
same,Ki67-positive proliferating cells,[2]; day 7,identified
same,PDH expression in Ki67-positive proliferating cells,[2]; day 7,clearly confirmed
same,PDK expression in K15-positive stem cells,[2]; day 7,detected
same,expression of δ-catenin,[2]; day 7,increased
same,keratin 15 (K15) expression in follicle protrusion region compared to control or minoxidil,[2]; day 7,strongly expressed
same,K15/PDH and Ki67/PDK expressions,[2]; day 20,independently detected
same,Sonic hedgehog (Shh) detection,[2]; day 20,clearly detected
same,enhancing reprogramming efficiency,[3]; 10 nM,16.8 times
same,enhancing reprogramming efficiency,[3]; 20 nM,13.9 times
same,enhancing reprogramming efficiency,[3]; 50 nM,13.7 times
same,"effect on reprogramming, number of AP+ colonies","[3]; OSKM, after 14 days, indicated concentrations",increased
